Columns and labels:
rye = experiment: Growth height of rye, greenhouse (Example 8); type: in vivo, rye (Petkuser); details: for Plant height relative: control 100
Description: (§1) In the greenhouse, the four cereals wheat ("Opal" variety), rye ("Petkuser"), barley ("Villa") and oats ("Flamingskrone") were sown in plastic dishes 11.5 cm in diameter in a sandy loam adequately supplied with nutrients. The active ingredients were applied at various rates to the soil and to the leaves. When applied to the soil, the active ingredient were sprayed onto the surface of the soil on the day of sowing; in the case of leaf treatment, the leaves were sprayed in the usual manner at a growth height of the plants of 10 cm. During the 18 day growth period, the treated plants grew much more slowly than the untreated control, a fact later confirmed by measurements of the stem length. Measurements were taken of 100 plants from each series.
(§2) The prior art agent used for comparison purposes was N-2-chloroethyl-N,N,N-trimethylammonium chloride (CCC; German Printed Application DAS No. 1,294,734).

oats = experiment: Growth height of oats, greenhouse (Example 10); type: in vivo, oats (Flamingskrone); details: for Plant height relative: control 100
Description: as §1, §2

barley = experiment: Growth height of barley, greenhouse (Example 9); type: in vivo, barley (Villa); details: for Plant height relative: control 100
Description: as §1, §2

wheat = experiment: Growth height of wheat, greenhouse (Example 7); type: in vivo, wheat (Opal variety); details: soil; for Plant height relative: control 100
Description: as §1, §2

Question: With `Clc1ccc(N2N=NC3C4CC(C5N=NC45)C32)cc1` (stereo not drawn) [drawing 350] as the compound, how does the Plant height (rye; leaf, 0.125 kg/ha) read?
Answer: The Plant height was 24.5 cm.

Question: What about the Plant height relative (rye; leaf, 0.125 kg/ha) of the same compound?
Answer: The Plant height relative was 83.1.

Question: What about the Plant height (rye; leaf, 0.5 kg/ha) of the same compound?
Answer: Its Plant height is 20.0 cm.

Question: And the Plant height relative (rye; leaf, 0.5 kg/ha)?
Answer: The Plant height relative was 67.8.

Question: And the Plant height (rye; leaf, 1.0 kg/ha)?
Answer: Its Plant height is 18.5 cm.

Question: And the Plant height relative (rye; leaf, 1.0 kg/ha)?
Answer: The Plant height relative was 62.7.

Question: What about the Plant height (rye; leaf, 2.0 kg/ha) of the same compound?
Answer: Its Plant height is 17.5 cm.

Question: And the Plant height relative (rye; leaf, 2.0 kg/ha)?
Answer: The Plant height relative was 59.3.

Question: What about the Plant height (rye; leaf, 4.0 kg/ha) of the same compound?
Answer: Its Plant height is 16.0 cm.

Question: What about the Plant height relative (rye; leaf, 4.0 kg/ha) of the same compound?
Answer: Its Plant height relative is 54.2.

Question: With `Clc1ccc(N2N=NC3C4CC(C5N=NC45)C32)cc1` (stereo not drawn) [drawing 358] as the compound, how does the Plant height (oats; leaf, 0.125 kg/ha) read?
Answer: The Plant height was 23.5 cm.

Question: What about the Plant height relative (oats; leaf, 0.125 kg/ha) of the same compound?
Answer: The Plant height relative was 83.9.

Question: And the Plant height (oats; leaf, 0.5 kg/ha)?
Answer: Its Plant height is 22.5 cm.

Question: What about the Plant height relative (oats; leaf, 0.5 kg/ha) of the same compound?
Answer: Its Plant height relative is 80.4.

Question: What about the Plant height (oats; leaf, 1.0 kg/ha) of the same compound?
Answer: Its Plant height is 21.0 cm.

Question: What about the Plant height relative (oats; leaf, 1.0 kg/ha) of the same compound?
Answer: Its Plant height relative is 75.0.

Question: And the Plant height (oats; leaf, 2.0 kg/ha)?
Answer: Its Plant height is 19.0 cm.

Question: What about the Plant height relative (oats; leaf, 2.0 kg/ha) of the same compound?
Answer: Its Plant height relative is 67.9.

Question: And the Plant height (oats; leaf, 4.0 kg/ha)?
Answer: The Plant height was 17.0 cm.

Question: And the Plant height relative (oats; leaf, 4.0 kg/ha)?
Answer: Its Plant height relative is 60.7.

Question: With `Brc1ccc(N2N=NC3C4CC(C5N=NC45)C32)cc1` (stereo not drawn) [drawing 353] as the compound, how does the Plant height (barley; soil, 0.5 kg/ha) read?
Answer: The Plant height was 30.5 cm.

Question: And the Plant height relative (barley; soil, 0.5 kg/ha)?
Answer: Its Plant height relative is 96.8.

Question: And the Plant height (barley; soil, 1.0 kg/ha)?
Answer: The Plant height was 29.0 cm.

Question: And the Plant height relative (barley; soil, 1.0 kg/ha)?
Answer: The Plant height relative was 92.1.

Question: What about the Plant height (barley; soil, 2.0 kg/ha) of the same compound?
Answer: Its Plant height is 24.5 cm.

Question: What about the Plant height relative (barley; soil, 2.0 kg/ha) of the same compound?
Answer: The Plant height relative was 77.8.

Question: And the Plant height (barley; soil, 6.0 kg/ha)?
Answer: Its Plant height is 19.0 cm.

Question: What about the Plant height relative (barley; soil, 6.0 kg/ha) of the same compound?
Answer: Its Plant height relative is 60.3.

Question: What does the source list for `Brc1ccc(N2N=NC3C4CC(C5N=NC45)C32)cc1` (stereo not drawn) [drawing 351]?
Answer: Plant height (rye; leaf, 0.125 kg/ha): 25.0 cm; Plant height relative (rye; leaf, 0.125 kg/ha): 84.7; Plant height (rye; leaf, 0.5 kg/ha): 20.5 cm; Plant height relative (rye; leaf, 0.5 kg/ha): 69.5; Plant height (rye; leaf, 1.0 kg/ha): 22.0 cm; Plant height relative (rye; leaf, 1.0 kg/ha): 74.6; Plant height (rye; leaf, 2.0 kg/ha): 18.0 cm; Plant height relative (rye; leaf, 2.0 kg/ha): 61.0; Plant height (rye; leaf, 4.0 kg/ha): 18.5 cm; Plant height relative (rye; leaf, 4.0 kg/ha): 62.7

Question: For `Brc1ccc(N2N=NC3C4CC(C5N=NC45)C32)cc1` (stereo not drawn) [drawing 349], which Plant height (rye; soil, 0.5 kg/ha) is on record?
Answer: Its Plant height is 23.0 cm.

Question: And the Plant height relative (rye; soil, 0.5 kg/ha)?
Answer: The Plant height relative was 79.3.

Question: What about the Plant height (rye; soil, 1.0 kg/ha) of the same compound?
Answer: Its Plant height is 22.5 cm.

Question: And the Plant height relative (rye; soil, 1.0 kg/ha)?
Answer: Its Plant height relative is 77.6.

Question: And the Plant height (rye; soil, 2.0 kg/ha)?
Answer: The Plant height was 19.0 cm.

Question: What about the Plant height relative (rye; soil, 2.0 kg/ha) of the same compound?
Answer: Its Plant height relative is 65.5.

Question: And the Plant height (rye; soil, 6.0 kg/ha)?
Answer: The Plant height was 9.0 cm.

Question: And the Plant height relative (rye; soil, 6.0 kg/ha)?
Answer: The Plant height relative was 31.0.

Question: How did the Plant height (wheat; 0.5 kg/ha) turn out when `Brc1ccc(N2N=NC3C4CC(C5N=NC45)C32)cc1` (stereo not drawn) [drawing 345] was run?
Answer: Its Plant height is 27.5 cm.

Question: What about the Plant height relative (wheat; 0.5 kg/ha) of the same compound?
Answer: The Plant height relative was 88.7.

Question: What about the Plant height (wheat; 1.0 kg/ha) of the same compound?
Answer: The Plant height was 22.5 cm.

Question: And the Plant height relative (wheat; 1.0 kg/ha)?
Answer: Its Plant height relative is 72.6.

Question: What about the Plant height (wheat; 2.0 kg/ha) of the same compound?
Answer: Its Plant height is 15.5 cm.

Question: And the Plant height relative (wheat; 2.0 kg/ha)?
Answer: The Plant height relative was 50.0.

Question: And the Plant height (wheat; 6.0 kg/ha)?
Answer: Its Plant height is 11.5 cm.

Question: And the Plant height relative (wheat; 6.0 kg/ha)?
Answer: The Plant height relative was 31.7.

Question: `Clc1ccc(N2N=NC3C4CC(C5N=NC45)C32)cc1` (stereo not drawn) [drawing 354] was tested. Which Plant height (barley; leaf, 0.125 kg/ha) did it give?
Answer: The Plant height was 24.0 cm.

Question: And the Plant height relative (barley; leaf, 0.125 kg/ha)?
Answer: The Plant height relative was 80.0.

Question: What about the Plant height (barley; leaf, 0.5 kg/ha) of the same compound?
Answer: Its Plant height is 23.0 cm.

Question: And the Plant height relative (barley; leaf, 0.5 kg/ha)?
Answer: Its Plant height relative is 76.7.

Question: And the Plant height (barley; leaf, 1.0 kg/ha)?
Answer: Its Plant height is 21.5 cm.

Question: What about the Plant height relative (barley; leaf, 1.0 kg/ha) of the same compound?
Answer: Its Plant height relative is 71.7.

Question: And the Plant height (barley; leaf, 2.0 kg/ha)?
Answer: The Plant height was 20.5 cm.

Question: What about the Plant height relative (barley; leaf, 2.0 kg/ha) of the same compound?
Answer: Its Plant height relative is 68.3.

Question: And the Plant height (barley; leaf, 4.0 kg/ha)?
Answer: The Plant height was 18.5 cm.

Question: And the Plant height relative (barley; leaf, 4.0 kg/ha)?
Answer: The Plant height relative was 61.7.

Question: What does the source list for `Clc1ccc(N2N=NC3C4CC(C5N=NC45)C32)cc1` (stereo not drawn) [drawing 356]?
Answer: Plant height (oats; soil, 0.5 kg/ha): 25.0 cm; Plant height relative (oats; soil, 0.5 kg/ha): 89.3; Plant height (oats; soil, 1.0 kg/ha): 24.0 cm; Plant height relative (oats; soil, 1.0 kg/ha): 85.7; Plant height (oats; soil, 2.0 kg/ha): 21.0 cm; Plant height relative (oats; soil, 2.0 kg/ha): 75.0; Plant height (oats; soil, 6.0 kg/ha): 15.0 cm; Plant height relative (oats; soil, 6.0 kg/ha): 53.6
